Values quoted from earlier work in patent US10393636B2 (priority 2017, dated 2019).

Log P: 5.06
Structure (SMILES): CN[C@H]1CC[C@@H](c2ccc(Cl)c(Cl)c2)c2ccccc21 [Sertraline]
